Literature values, collected in US10828278B2, “Tesofensine and beta blocker combination formulations” (SANIONA A/S, priority 2015, dated 2020).

Key:
[1] = for half-life: in vivo
[2] = long-term treatment, corrected for placebo and diet effects, obese patients
[3] = in vivo

SMILES | half-life [1] [h] | weight loss [2] | serum half-life ([1]; serum) | sagittal diameter [3] | waist circumference [3]
COc1ccccc1OCCNCC(O)COc1cccc2[nH]c3ccccc3c12 (racemic) [carvedilol, (±)-[3-(9H-carbazol-4-yloxy)-2-hydroxypropyl][2-(2-methoxyphenoxy)ethyl]amine] | 7 to 10 |  |  |  | 
CCOC[C@@H]1[C@@H](c2ccc(Cl)c(Cl)c2)C[C@@H]2CC[C@H]1N2C [Tesofensine, (1R,2R,3S,5S)-3-(3,4-dichlorophenyl)-2-(ethoxymethyl)-8-methyl-8-azabicyclo[3.2.1]octane] |  | about 10% | nine | significantly decreases | significantly decreases
COCCc1ccc(OCC(O)CNC(C)C)cc1 (stereo not drawn) [metoprolol, 1-(Isopropylamino)-3-[4-(2-methoxyethyl)-phenoxy]-propan-2-ol] | 3 to 4 |  |  |  | 
